# Assay results published in ChEMBL document CHEMBL1201862, “PubChem BioAssay data set” (2004).
# The source made the active and inactive calls.
# Columns and labels:
# [1] = biological target: 1-phosphatidylinositol 4,5-bisphosphate phosphodiesterase beta-3 (Homo sapiens, UniProt Q01970); assay: Fluorescence-based biochemical high throughput dose response assay to identify inhibitors of phospholipase C isozymes (PLC-B3).
# [2] = biological target: 1-phosphatidylinositol 4,5-bisphosphate phosphodiesterase gamma-1 (Homo sapiens, UniProt P19174); assay: Counterscreen for inhibitors of phospholipase C isozymes (PLC-B3): Fluorescence-based biochemical high throughput dose response assay to identify inhibitors of phospholipase C isozymes (PLC-gamma1).
# [3] = control 3'UTR Renilla luciferase suppression, dose response, counter-screen for Shn3 inhibitor project, cell-based, Clone20-Shn3RL, cherry-picked (AID 624133); format: functional
# [4] = Shn3 3'UTR reporter inhibitors, dose response, cell-based, Clone20 osteoblasts, firefly luciferase, cherry-picked (AID 624132); format: functional;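 further: firefly luciferase luminescence from reporter carrying the Shn3 3'UTR in osteoblasts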
# [5] = MC4R antagonists, dose response, counter-screen for LGR2 antagonist project, cell-based, plate reader, cherry pick (AID 743444); format: functional;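 further: transfected HEK 293 cells stimulated with alpha-MSH peptide; potency of inhibitors of the alpha-MSH evoked signal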
# [6] = HEK293 cell cytotoxicity, dose response, cytotoxicity control, plate reader, cherry-picked samples (AID 743446); format: functional, cell-based
# [7] = HepG2 cell cytotoxicity, dose response, cytotoxicity control, plate reader, cherry-pick, antagonist series (AID 743416); format: functional, cell-based
# [8] = HepG2 cell cytotoxicity, dose response, cytotoxicity control for Shn3 inhibitor project, CellTiter-Glo, cherry-picked (AID 624134); format: functional, cell-based
# [9] = reduction of Shn3 3'UTR firefly luciferase signal, dose response, Schnurri-3 inhibitor project, cell-based, Clone20 osteoblasts, cherry-pick, set 2 (AID 720490); format: functional;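 further: actives lower the luminescence signal as inhibitors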
# [10] = LGR2 antagonists, dose response, cell-based, HEK293, CRE-luciferase reporter, cherry pick, set 2 (AID 743343); format: functional;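 further: transfected cells were stimulated with diluted bursicon conditioned medium after compound addition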
# [11] = biological target: Potassium channel subfamily K member 3 (Homo sapiens, UniProt O14649); assay: TASK1 (KCNK3) potassium channel inhibitors, SAR follow-up, CHO cells, FluxOR thallium flux (AID 652212); format: functional
# Escherichia coli = assay: microbe, parasite or virus in culture
# [12] = biological target: Luciferin 4-monooxygenase (Photinus pyralis, UniProt P08659); assay: firefly luciferase enzyme inhibitors, dose response, biochemical, luminescence (AID 1891)
# [13] = Luminescence Cell-Based Dose Confirmation HTS to Identify Inhibitors of Platelet Dense Granule Release. [Related pubchem assays: 1663 (Primary HTS), 1678 (Summary of Project)]; format: functional
# [14] = cytotoxicity toward DRD oncogenic fibroblasts, dose response, cell-based, non-viral oncogenic, luminescence (AID 1934); format: functional; conditions: Homo sapiens
# [15] = biological target: Endoplasmic reticulum aminopeptidase 1 (Homo sapiens, UniProt Q9NZ08); assay: ERAP1 aminopeptidase inhibitors, dose response, biochemical, cherry-pick, set 2, plate reader (AID 743314)
# BJ [16] = assay: cytotoxicity toward BJ-TERT-LT-ST fibroblasts, dose response, cell-based, RAS-independent, luminescence (AID 1935); format: functional; conditions: Homo sapiens;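 further: BJ fibroblasts immortalized with TERT plus LT and ST oncogenes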
# [17] = A549 cell cytotoxicity, dose response, cytotoxicity control, plate reader, cherry-pick, antagonist series (AID 743412); format: functional, cell-based
# BJ [18] = assay: cells; format: functional, cell-based; conditions: Homo sapiens
# INS1 = assay: beta cell apoptosis inhibitors, cytokine rescue, dose response, luminescence, retest (AID 449756); format: functional, cell-based; conditions: Rattus norvegicus;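 further: cell death triggered by IL-1 beta plus TNF-alpha plus IFN-gamma mixture; protective hits raise ATP signal compared with cytokine alone wells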
# BJ [19] = assay: cytotoxicity toward BJ-TERT fibroblasts, dose response, cell-based, RAS-independent, luminescence (AID 1933); format: functional; conditions: Homo sapiens
# [20] = NIH:OVCAR-3 ovarian cancer cell cytotoxicity, dose response, PAX8 inhibitor project, plate reader, dry powder samples (AID 743044); format: functional, cell-based
# [21] = cytotoxicity in OVCAR8 ovarian cancer cells, dose response, PAX8 project, cell-based, plate reader, dry powder samples (AID 743197); format: functional; conditions: OVCAR-8
# [22] = IOSE-T80 ovarian epithelial cell cytotoxicity, dose response, cytotoxicity control for PAX8 inhibitor project, plate reader, dry powder samples (AID 743045); format: functional, cell-based
# Paired box protein Pax-8 = Paired box protein Pax-8 (Homo sapiens, UniProt Q06710); assay: inhibitors of PAX8-driven TPO luciferase reporter, dose response, RMG-I cells, cherry-pick (AID 687027); format: functional, cell-based;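 further: luciferase reporter driven by Pax8 target thyroperoxidase promoter measured by SteadyGlo luminescence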
# Protein Wnt-3a = Protein Wnt-3a (Mus musculus, UniProt P27467); assay: SAR analysis of small molecule antagonists of Gli-SUFU in a Wnt3a luminescent reporter assay.; format: functional
# [23] = HepG2 cell cytotoxicity, dose response, cytotoxicity control, ATP luminescence, cherry-pick, activator set 2 (AID 1053143); format: functional, cell-based
# cells [24] = format: functional, cell-based
# [25] = Luminescence Cell-Based Dose Response HTS to Identify Activators of Luciferase Translation or Activity in H4 […] Cells. [Related pubchem assays: 1829 (Project Summary), 1814 (Primary HTS)]; format: functional
# Protein skinhead-1 = biological target: T1, Protein skinhead-1 (Caenorhabditis elegans, UniProt P34707); format: functional
# T1 sequence (P34707 whole entry): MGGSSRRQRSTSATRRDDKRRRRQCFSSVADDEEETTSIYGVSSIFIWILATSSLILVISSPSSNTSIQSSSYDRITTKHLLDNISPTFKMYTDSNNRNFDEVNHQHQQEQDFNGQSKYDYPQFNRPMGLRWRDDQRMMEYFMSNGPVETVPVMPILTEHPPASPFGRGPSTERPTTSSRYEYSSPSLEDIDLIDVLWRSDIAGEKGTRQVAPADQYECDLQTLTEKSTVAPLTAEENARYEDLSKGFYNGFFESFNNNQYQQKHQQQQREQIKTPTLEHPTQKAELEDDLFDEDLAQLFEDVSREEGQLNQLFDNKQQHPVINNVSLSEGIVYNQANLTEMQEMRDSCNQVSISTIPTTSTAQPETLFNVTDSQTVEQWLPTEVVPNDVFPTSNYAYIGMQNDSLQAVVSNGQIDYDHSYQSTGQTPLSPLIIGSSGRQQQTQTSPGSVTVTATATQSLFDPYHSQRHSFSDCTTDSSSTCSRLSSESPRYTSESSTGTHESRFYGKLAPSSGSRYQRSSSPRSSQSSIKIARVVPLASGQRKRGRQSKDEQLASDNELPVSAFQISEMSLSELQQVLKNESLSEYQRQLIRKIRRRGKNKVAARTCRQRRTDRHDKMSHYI
# cells [26] = format: functional, cell-based; remark: listed apart in the source
# H4 = assay: Luminescence Cell-Based Dose Response HTS to Identify Activators of 5'UTR Stem-Loop Driven Prion Protein mRNA Translation in H4 Neuroglioblastoma Cells. [Related pubchem assays: 1829 (Project Summary), 1814 (Primary HTS)]; format: functional; conditions: Homo sapiens
# Caspase-6 = Caspase-6 (Homo sapiens, UniProt P55212); assay: human caspase-6 inhibitors, dose response, biochemical, VEID-R110 fluorescence, cherry-pick (AID 720632)
# [27] = biological target: T2, Zinc finger protein mex-5 (Caenorhabditis elegans, UniProt Q9XUB2); assay: MEX-5/TCR-2 RNA interaction inhibitors, dose response, biochemical, C. elegans, fluorescence polarization (AID 1960)
# T2 sequence (Q9XUB2 whole entry): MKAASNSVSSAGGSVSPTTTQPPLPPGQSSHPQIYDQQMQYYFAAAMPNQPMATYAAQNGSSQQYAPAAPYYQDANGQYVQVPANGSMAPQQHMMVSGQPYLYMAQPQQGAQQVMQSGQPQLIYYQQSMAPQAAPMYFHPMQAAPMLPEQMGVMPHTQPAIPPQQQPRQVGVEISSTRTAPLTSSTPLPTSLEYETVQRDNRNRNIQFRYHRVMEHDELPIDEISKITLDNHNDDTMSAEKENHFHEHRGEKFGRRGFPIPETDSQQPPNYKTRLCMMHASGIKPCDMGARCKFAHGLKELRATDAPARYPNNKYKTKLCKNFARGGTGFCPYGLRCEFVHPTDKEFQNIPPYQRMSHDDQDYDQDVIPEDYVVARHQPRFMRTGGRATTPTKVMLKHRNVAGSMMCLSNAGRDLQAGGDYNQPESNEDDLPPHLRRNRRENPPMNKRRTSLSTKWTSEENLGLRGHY
# [28] = biological target: T3, RNA-binding protein pos-1 (Caenorhabditis elegans, UniProt G5EF15); assay: inhibitors of POS-1/mex-3 RNA binding, dose response, biochemical, fluorescence polarization (AID 1964);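 further: purified POS-1 fused to maltose binding protein made in E. coli; potency of compounds blocking POS-1 binding to fluorescent RNA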
# T3 sequence (G5EF15 whole entry): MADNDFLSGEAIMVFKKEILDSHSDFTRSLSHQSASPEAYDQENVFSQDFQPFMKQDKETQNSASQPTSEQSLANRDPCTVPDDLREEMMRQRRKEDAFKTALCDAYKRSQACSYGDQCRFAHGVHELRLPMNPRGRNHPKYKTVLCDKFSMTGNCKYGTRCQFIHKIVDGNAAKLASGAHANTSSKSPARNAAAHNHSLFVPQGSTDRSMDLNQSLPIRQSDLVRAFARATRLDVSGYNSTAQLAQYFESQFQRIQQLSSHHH
# [29] = cytotoxicity in HEK-293T NF-kB-Luc cells, dose response, cytotoxicity control for B/T-cell NF-kB inhibitor project, cell-based, uHTS hits (AID 489019); format: functional;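 further: IC50 reflects cytotoxicity as loss of cell viability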
# Jurkat = assay: antigen receptor-induced NF-kB inhibitors, dose response, Jurkat, luciferase reporter, luminescence, B- and T-cell (AID 489004); format: functional, cell-based; conditions: Homo sapiens;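 further: NF-kB luciferase reporter Jurkat cells stimulated with PMA plus ionomycin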
# cells [30] = format: functional, cell-based; remark: listed apart in the source
# [31] = biological target: T4, Nuclear receptor subfamily 0 group B member 1 (Homo sapiens, UniProt P51843); format: functional, cell-based;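 further: HEK293T cells transfected with SF-1 and DAX-1 plus StAR promoter luciferase reporter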
# T4 sequence (P51843 whole entry): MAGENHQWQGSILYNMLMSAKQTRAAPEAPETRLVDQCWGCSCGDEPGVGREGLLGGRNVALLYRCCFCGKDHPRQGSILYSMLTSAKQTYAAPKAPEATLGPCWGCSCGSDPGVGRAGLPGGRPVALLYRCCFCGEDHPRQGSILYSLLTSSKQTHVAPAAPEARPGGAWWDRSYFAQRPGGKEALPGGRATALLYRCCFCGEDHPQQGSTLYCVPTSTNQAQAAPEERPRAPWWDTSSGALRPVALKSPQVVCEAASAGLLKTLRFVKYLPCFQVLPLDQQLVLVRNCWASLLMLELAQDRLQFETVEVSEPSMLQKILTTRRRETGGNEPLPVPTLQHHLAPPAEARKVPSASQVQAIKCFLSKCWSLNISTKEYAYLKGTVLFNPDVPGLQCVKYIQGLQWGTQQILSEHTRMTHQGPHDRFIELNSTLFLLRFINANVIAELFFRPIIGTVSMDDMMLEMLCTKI
# HEK293 = assay: inhibitors of LMP1-driven NF-kB reporter, dose response, cell-based, HEK293, luciferase, cherry-pick (AID 588343); format: functional; conditions: Homo sapiens
# Paired box protein Pax-8, sequence (Q06710 whole entry): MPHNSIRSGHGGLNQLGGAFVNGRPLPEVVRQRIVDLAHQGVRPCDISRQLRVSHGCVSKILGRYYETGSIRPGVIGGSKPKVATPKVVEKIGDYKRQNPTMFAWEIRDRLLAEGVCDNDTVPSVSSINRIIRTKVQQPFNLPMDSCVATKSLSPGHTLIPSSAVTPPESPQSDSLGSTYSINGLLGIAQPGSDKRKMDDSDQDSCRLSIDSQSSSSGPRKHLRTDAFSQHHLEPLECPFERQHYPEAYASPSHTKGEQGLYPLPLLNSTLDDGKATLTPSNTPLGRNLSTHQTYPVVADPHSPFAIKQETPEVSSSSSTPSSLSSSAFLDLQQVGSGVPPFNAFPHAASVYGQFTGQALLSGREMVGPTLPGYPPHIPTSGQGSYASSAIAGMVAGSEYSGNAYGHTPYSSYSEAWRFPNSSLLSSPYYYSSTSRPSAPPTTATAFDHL
# 1-phosphatidylinositol 4,5-bisphosphate phosphodiesterase gamma-1, sequence (P19174 whole entry): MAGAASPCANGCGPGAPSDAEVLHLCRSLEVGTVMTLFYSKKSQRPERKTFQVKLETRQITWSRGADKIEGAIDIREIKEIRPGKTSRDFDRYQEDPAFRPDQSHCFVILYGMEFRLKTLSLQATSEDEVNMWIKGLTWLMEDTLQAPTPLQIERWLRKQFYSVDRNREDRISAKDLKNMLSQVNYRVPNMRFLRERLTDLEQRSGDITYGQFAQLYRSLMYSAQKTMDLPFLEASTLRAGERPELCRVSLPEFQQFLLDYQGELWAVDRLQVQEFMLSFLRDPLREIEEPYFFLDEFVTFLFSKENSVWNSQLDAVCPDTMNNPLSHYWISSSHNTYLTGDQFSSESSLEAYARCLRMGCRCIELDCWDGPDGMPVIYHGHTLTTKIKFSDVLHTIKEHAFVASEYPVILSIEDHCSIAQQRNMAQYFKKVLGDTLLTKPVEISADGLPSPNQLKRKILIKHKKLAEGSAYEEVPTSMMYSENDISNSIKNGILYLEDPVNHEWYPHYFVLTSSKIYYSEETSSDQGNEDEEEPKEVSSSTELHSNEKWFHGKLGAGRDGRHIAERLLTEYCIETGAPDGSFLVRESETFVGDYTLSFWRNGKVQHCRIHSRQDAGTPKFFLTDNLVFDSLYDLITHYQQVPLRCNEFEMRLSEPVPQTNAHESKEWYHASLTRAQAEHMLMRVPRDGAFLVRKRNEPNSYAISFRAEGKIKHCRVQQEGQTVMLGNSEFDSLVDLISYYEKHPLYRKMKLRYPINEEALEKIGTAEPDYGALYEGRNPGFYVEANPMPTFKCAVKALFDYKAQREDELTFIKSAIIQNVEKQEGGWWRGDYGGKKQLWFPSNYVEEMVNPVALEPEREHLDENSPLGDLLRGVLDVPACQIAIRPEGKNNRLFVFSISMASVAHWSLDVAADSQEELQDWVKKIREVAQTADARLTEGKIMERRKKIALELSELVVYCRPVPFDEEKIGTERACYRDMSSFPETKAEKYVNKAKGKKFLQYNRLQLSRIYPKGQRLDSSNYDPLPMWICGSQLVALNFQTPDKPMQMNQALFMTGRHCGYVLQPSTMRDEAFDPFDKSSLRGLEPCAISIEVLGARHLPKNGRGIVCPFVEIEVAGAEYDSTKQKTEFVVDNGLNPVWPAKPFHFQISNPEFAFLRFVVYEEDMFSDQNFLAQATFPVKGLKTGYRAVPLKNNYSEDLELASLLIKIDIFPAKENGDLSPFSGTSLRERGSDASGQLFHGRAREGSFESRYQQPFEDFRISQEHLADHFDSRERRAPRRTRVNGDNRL
# 1-phosphatidylinositol 4,5-bisphosphate phosphodiesterase beta-3, sequence (Q01970 whole entry): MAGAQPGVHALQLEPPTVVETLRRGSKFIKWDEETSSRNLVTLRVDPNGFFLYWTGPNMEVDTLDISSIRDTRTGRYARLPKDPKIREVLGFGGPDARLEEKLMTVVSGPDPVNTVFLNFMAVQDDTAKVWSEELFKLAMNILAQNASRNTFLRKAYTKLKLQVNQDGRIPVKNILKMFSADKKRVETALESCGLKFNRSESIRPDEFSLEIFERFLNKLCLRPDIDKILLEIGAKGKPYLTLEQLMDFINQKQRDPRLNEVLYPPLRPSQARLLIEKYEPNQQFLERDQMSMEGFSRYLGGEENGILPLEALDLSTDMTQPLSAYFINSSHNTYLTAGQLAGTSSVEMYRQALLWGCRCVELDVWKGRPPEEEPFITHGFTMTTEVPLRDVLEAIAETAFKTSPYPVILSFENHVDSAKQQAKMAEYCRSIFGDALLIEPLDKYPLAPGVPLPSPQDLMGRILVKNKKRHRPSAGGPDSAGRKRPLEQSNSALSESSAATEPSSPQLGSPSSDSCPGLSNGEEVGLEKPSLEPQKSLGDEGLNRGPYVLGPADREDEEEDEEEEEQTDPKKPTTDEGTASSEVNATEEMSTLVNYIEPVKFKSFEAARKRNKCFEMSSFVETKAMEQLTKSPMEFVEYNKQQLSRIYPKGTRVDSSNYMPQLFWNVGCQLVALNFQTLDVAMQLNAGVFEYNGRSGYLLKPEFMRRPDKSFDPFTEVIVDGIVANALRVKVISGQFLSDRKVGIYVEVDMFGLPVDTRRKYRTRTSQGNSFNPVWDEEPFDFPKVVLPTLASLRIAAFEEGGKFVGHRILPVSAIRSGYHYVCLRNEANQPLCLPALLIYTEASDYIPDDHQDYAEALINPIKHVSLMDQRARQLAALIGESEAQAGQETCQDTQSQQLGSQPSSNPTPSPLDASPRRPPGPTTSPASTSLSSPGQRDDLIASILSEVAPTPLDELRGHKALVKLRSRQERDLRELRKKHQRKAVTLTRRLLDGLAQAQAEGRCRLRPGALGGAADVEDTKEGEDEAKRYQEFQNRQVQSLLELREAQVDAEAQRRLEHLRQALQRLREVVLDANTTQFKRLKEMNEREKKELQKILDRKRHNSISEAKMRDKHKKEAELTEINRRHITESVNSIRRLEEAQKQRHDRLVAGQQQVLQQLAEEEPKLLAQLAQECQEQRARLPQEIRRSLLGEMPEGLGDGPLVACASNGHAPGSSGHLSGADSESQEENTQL
# Luciferin 4-monooxygenase, sequence (P08659 whole entry): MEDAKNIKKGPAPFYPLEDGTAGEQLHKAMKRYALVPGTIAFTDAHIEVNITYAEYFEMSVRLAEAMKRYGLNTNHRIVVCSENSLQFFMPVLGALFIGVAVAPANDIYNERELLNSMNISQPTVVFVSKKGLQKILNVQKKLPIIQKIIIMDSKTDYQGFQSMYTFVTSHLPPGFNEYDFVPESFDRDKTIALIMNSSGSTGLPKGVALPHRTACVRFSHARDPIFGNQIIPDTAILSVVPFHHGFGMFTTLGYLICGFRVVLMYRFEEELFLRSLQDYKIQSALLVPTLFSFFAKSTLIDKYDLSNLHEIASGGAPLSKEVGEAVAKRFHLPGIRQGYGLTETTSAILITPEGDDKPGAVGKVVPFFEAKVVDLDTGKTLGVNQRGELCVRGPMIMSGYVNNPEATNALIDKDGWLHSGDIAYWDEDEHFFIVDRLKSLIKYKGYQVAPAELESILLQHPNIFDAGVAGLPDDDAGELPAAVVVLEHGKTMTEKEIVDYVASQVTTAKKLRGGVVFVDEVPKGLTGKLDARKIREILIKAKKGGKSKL
# Protein Wnt-3a, sequence (P27467 whole entry): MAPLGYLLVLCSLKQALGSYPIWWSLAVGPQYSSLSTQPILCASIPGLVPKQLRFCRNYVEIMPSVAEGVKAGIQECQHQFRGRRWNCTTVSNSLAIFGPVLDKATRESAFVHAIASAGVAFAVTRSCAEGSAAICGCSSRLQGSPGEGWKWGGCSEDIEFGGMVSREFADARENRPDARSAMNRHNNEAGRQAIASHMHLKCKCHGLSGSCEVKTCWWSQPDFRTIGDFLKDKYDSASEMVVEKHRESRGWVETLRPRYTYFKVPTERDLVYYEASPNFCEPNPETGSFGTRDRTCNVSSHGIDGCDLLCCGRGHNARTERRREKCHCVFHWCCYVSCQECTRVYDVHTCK
# Potassium channel subfamily K member 3, sequence (O14649 whole entry): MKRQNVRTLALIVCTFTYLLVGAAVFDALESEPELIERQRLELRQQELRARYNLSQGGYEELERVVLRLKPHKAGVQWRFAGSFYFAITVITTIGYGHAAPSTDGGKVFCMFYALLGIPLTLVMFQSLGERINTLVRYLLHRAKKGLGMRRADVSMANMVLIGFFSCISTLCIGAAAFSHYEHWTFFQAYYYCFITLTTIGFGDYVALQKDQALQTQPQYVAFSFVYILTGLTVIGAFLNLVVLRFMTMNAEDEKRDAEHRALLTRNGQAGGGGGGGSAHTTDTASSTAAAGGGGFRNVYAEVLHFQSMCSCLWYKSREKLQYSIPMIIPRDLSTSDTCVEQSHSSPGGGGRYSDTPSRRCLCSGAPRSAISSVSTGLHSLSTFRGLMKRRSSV
# Caspase-6, sequence (P55212 24-179 limits assumed): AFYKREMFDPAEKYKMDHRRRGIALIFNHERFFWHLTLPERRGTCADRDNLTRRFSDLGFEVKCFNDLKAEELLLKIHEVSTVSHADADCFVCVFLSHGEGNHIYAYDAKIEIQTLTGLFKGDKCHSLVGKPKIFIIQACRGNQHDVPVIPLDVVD
# Caspase-6, sequence (P55212 194-293 limits assumed): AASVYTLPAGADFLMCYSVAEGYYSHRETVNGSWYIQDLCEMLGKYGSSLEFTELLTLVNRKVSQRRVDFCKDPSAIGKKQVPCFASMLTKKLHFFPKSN
smiles,measurement,setting,value
CC(C)c1ccccc1NC(=O)Nc1ccc2c(c1)OCO2,IC50,[1],> 123 µM (inactive)
same,IC50,[2],> 123 µM (inactive)
COc1cc(NC(=O)c2cccc3c(-c4cccnc4)coc23)cc(OC)c1OC,AC50,[3],11.5 µM (active)
same,AC50,[4],0.978 µM (active)
same,AC50,[5],11.2 µM (active)
same,AC50,[6],28.6 µM (active)
same,AC50,[7],> 52 µM (inactive)
same,AC50,[8],57.5 µM (active)
same,AC50,[9],5.23 µM (active)
same,AC50,[10],11.2 µM (active)
O=C(Nc1cccc(NC(=O)c2ccco2)c1)c1ccccc1,IC50,[11],0.036 µM (active)
same,AC50,Escherichia coli,25 µM (active)
Cc1cc2nc(-c3cccnc3O)[nH]c2cc1C,EC50,[12],1.07 µM (active)
same,EC50,[13],1.73 µM (active)
same,EC50,[14],4.3 µM (active)
same,AC50,[5],2.69 µM (active)
same,AC50,[15],7.63 µM (active)
same,AC50,[6],6.43 µM (active)
same,AC50,[7],7.17 µM (active)
same,EC50,BJ [16],13.3 µM (active)
same,AC50,[17],8.69 µM (active)
same,EC50,BJ [18],8.47 µM (active)
same,AC50,INS1,3.23 µM (active)
same,AC50,[10],2.48 µM (active)
same,EC50,BJ [19],4.58 µM (active)
COc1ccc(S(=O)(=O)Nc2ccc3c(c2)C(=O)N([C@@H](C)CO)C[C@@H](C)[C@@H](CN(C)Cc2ccc(C(F)(F)F)cc2)OCCCC[C@@H](C)O3)cc1,AC50,[20],23.1 µM (active)
same,AC50,[21],22.5 µM (active)
same,AC50,[22],24 µM (active)
same,AC50,Paired box protein Pax-8,6.1 µM (active)
CC1CCCCN1c1cc(NC(=O)c2ccccc2)ncn1 (stereo unspecified),IC50,Protein Wnt-3a,> 21.8 µM (inactive)
O=C(NC1CCCC1)c1cc(-c2ccccc2)on1,AC50,[23],26 µM (active)
same,EC50,cells [24],330 µM (active)
same,EC50,[25],0.355 µM (active)
same,IC50,Protein skinhead-1,> 100 µM (inactive)
same,EC50,cells [26],> 350 µM (not active)
same,EC50,H4,3.13 µM (active)
NNC(=O)CNC(=O)Nc1nnc(S)s1,AC50,Caspase-6,6.63 µM (active)
O=C(Nc1cc(N2CCCCC2)ncn1)c1cccc2ccccc12,IC50,Protein Wnt-3a,> 21.8 µM (inactive)
C[C@@H]1CCCCO[C@H](CN(C)Cc2ccc(C(=O)Nc3ccccc3N)cc2)[C@@H](C)CN([C@@H](C)CO)C(=O)c2cc(NS(=O)(=O)c3ccc(Cl)cc3)ccc2O1,AC50,[20],7.38 µM (active)
same,AC50,[21],41.6 µM (active)
same,AC50,[22],46.9 µM (active)
same,AC50,Paired box protein Pax-8,11.7 µM (active)
N#C/C(=C\c1cc(O)c(O)c(O)c1)C(N)=O,IC50,[1],> 122 µM (inactive)
same,EC50,[27],> 150 µM (inconclusive)
same,EC50,[28],134 µM (active)
same,IC50,[2],> 122 µM (inactive)
CCn1c(C)cc(C(=O)COC(=O)c2ccccc2[N+](=O)[O-])c1C,AC50,[4],< 0.26 µM (active)
same,IC50,[29],> 80 µM (inactive)
same,AC50,[9],< 0.135 µM (active)
same,IC50,Jurkat,< 0.16 µM (active)
Cc1ccnc(NC(=O)c2ccc(OCC3CCCO3)cc2)c1 (stereo unspecified),AC50,[23],26 µM (active)
same,EC50,[12],7.94 µM (active)
same,EC50,[13],5.2 µM (active)
same,IC50,cells [30],> 67.5 µM (inactive)
same,IC50,[31],> 67.5 µM (inactive)
same,AC50,HEK293,2.57 µM (active)
